In publication PMC5218480 (PLoS ONE, 2017):

Test system: MV-4-11 cells
Assay: Gene expression microarray analysis (Affymetrix PrimeView) and GSEA
Format: cell-based, human
Parameters: RFU PODN (11730768_x_at) / Fold change /veh PODN (11730768_x_at) / RFU LINC00158 (11744669_a_at) / Fold change /veh LINC00158 (11744669_a_at) / RFU DUSP10 (11751237_a_at) / Fold change /veh DUSP10 (11751237_a_at) / RFU ID3 (11757404_x_at) / Fold change /veh ID3 (11757404_x_at) / RFU PLEKHG5 (11737974_s_at) / Fold change /veh PLEKHG5 (11737974_s_at) / RFU LRRC4B (11730491_at) / Fold change /veh LRRC4B (11730491_at) / RFU GIMAP4 (11747438_a_at) / Fold change /veh GIMAP4 (11747438_a_at) / RFU KRT8 (11758183_x_at) / Fold change /veh KRT8 (11758183_x_at) / RFU CNN1 (11734310_a_at) / Fold change /veh CNN1 (11734310_a_at) / RFU VPS37D (11726825_at) / Fold change /veh VPS37D (11726825_at) / RFU C10orf10 (11716522_x_at) / Fold change /veh C10orf10 (11716522_x_at) / RFU KIR2DL2 /// KIR2DL4 /// KIR2DL5A /// KIR2DL5B /// KIR2DS1 /// KIR2DS2 /// KIR2DS3 /// KIR2DS4 /// KIR3DL3 /// KIR3DL3 /// KIR3DS1 (11738374_at) / Fold change /veh KIR2DL2 /// KIR2DL4 /// KIR2DL5A /// KIR2DL5B /// KIR2DS1 /// KIR2DS2 /// KIR2DS3 /// KIR2DS4 /// KIR3DL3 /// KIR3DL3 /// KIR3DS1 (11738374_at) / RFU C1QL1 (11718748_at) / Fold change /veh C1QL1 (11718748_at) / RFU TMPRSS4 (11747572_a_at) / Fold change /veh TMPRSS4 (11747572_a_at) / RFU HAMP (11756126_x_at) / Fold change /veh HAMP (11756126_x_at) / RFU RNFT2 (11725882_a_at) / Fold change /veh RNFT2 (11725882_a_at) / RFU NR4A2 (11747474_a_at) / Fold change /veh NR4A2 (11747474_a_at) / RFU ABCC12 (11746883_a_at) / Fold change /veh ABCC12 (11746883_a_at) / RFU TMEM136 (11760407_x_at) / Fold change /veh TMEM136 (11760407_x_at) / RFU CLDN22 /// WWC2 (11732394_at) / Fold change /veh CLDN22 /// WWC2 (11732394_at) / RFU HLA-DPB1 (11760878_x_at) / Fold change /veh HLA-DPB1 (11760878_x_at) / RFU SPINT1 (11716480_a_at) / Fold change /veh SPINT1 (11716480_a_at) / RFU GAP43 (11754022_s_at) / Fold change /veh GAP43 (11754022_s_at) / RFU A4GNT (11735810_at) / Fold change /veh A4GNT (11735810_at) / RFU PRB3 (11715151_x_at) / Fold change /veh PRB3 (11715151_x_at) / RFU TUBB4B (11761932_at) / Fold change /veh TUBB4B (11761932_at) / RFU CAPN14 (11732068_a_at) / Fold change /veh CAPN14 (11732068_a_at) / RFU TMCC2 (11721928_a_at) / Fold change /veh TMCC2 (11721928_a_at) / RFU IRGQ (11745062_a_at) / Fold change /veh IRGQ (11745062_a_at) / RFU FAM174B (11720279_a_at) / Fold change /veh FAM174B (11720279_a_at) / RFU TMPRSS4 (11748680_a_at) / Fold change /veh TMPRSS4 (11748680_a_at) / RFU FAM212B (11763350_a_at) / Fold change /veh FAM212B (11763350_a_at) / RFU PLEKHG5 (11743358_a_at) / Fold change /veh PLEKHG5 (11743358_a_at) / RFU ZSCAN30 (11745921_a_at) / Fold change /veh ZSCAN30 (11745921_a_at) / RFU CMKLR1 (11741424_a_at) / Fold change /veh CMKLR1 (11741424_a_at) / RFU LOC101060620 /// MAPK8IP1 (11723275_at) / Fold change /veh LOC101060620 /// MAPK8IP1 (11723275_at) / RFU SPTSSB (11747773_x_at) / Fold change /veh SPTSSB (11747773_x_at) / RFU PRSS12 (11739890_at) / Fold change /veh PRSS12 (11739890_at) / RFU BIN1 (11741810_x_at) / Fold change /veh BIN1 (11741810_x_at) / RFU WNT11 (11732464_a_at) / Fold change /veh WNT11 (11732464_a_at) / RFU C10orf10 (11716521_a_at) / Fold change /veh C10orf10 (11716521_a_at) / RFU C5orf56 (11738089_at) / Fold change /veh C5orf56 (11738089_at) / RFU CYB561 (11721691_x_at) / Fold change /veh CYB561 (11721691_x_at) / RFU ANKRD19P (11752326_a_at) / Fold change /veh ANKRD19P (11752326_a_at) / RFU OR2T12 /// OR2T33 /// OR2T8 (11738714_s_at) / Fold change /veh OR2T12 /// OR2T33 /// OR2T8 (11738714_s_at) / RFU VCAN (11748164_a_at) / Fold change /veh VCAN (11748164_a_at) / RFU JSRP1 (11732532_at) / Fold change /veh JSRP1 (11732532_at) / RFU KRTAP10-11 (11738290_x_at) / Fold change /veh KRTAP10-11 (11738290_x_at) / RFU MYO3A (11730013_a_at) / Fold change /veh MYO3A (11730013_a_at) / RFU EBF3 (11725865_a_at) / Fold change /veh EBF3 (11725865_a_at) / RFU CAMK2N1 (11719241_x_at) / Fold change /veh CAMK2N1 (11719241_x_at) / RFU C5orf56 (11738088_a_at) / Fold change /veh C5orf56 (11738088_a_at) / RFU OLFML3 (11715873_a_at) / Fold change /veh OLFML3 (11715873_a_at) / RFU LOC100653217 /// NTM (11731650_a_at) / Fold change /veh LOC100653217 /// NTM (11731650_a_at) / RFU MAPK11 (11762145_a_at) / Fold change /veh MAPK11 (11762145_a_at) / RFU FIZ1 (11724087_x_at) / Fold change /veh FIZ1 (11724087_x_at) / RFU OASL (11726364_x_at) / Fold change /veh OASL (11726364_x_at) / RFU SOX15 (11748057_x_at) / Fold change /veh SOX15 (11748057_x_at) / RFU CD79A (11719716_a_at) / Fold change /veh CD79A (11719716_a_at) / RFU HIST1H1D (11736915_at) / Fold change /veh HIST1H1D (11736915_at) / RFU CASKIN2 (11723855_a_at) / Fold change /veh CASKIN2 (11723855_a_at) / RFU LOC730098 (11760151_x_at) / Fold change /veh LOC730098 (11760151_x_at) / RFU OR4N2 (11742367_at) / Fold change /veh OR4N2 (11742367_at) / RFU PRRT2 (11749266_a_at) / Fold change /veh PRRT2 (11749266_a_at) / RFU SNX32 (11753110_a_at) / Fold change /veh SNX32 (11753110_a_at) / RFU CDHR5 (11726645_a_at) / Fold change /veh CDHR5 (11726645_a_at) / RFU RCAN1 (11760418_a_at) / Fold change /veh RCAN1 (11760418_a_at) / RFU FAM167A (11723789_a_at) / Fold change /veh FAM167A (11723789_a_at) / RFU FAM26E (11764081_at) / Fold change /veh FAM26E (11764081_at) / RFU ISYNA1 (11749810_s_at) / Fold change /veh ISYNA1 (11749810_s_at) / RFU ACY1 (11761880_at) / Fold change /veh ACY1 (11761880_at) / RFU 11764098_at / Fold change /veh 11764098_at / RFU SAMD14 (11745864_x_at) / Fold change /veh SAMD14 (11745864_x_at) / RFU NPB (11741838_a_at) / Fold change /veh NPB (11741838_a_at) / RFU TMPRSS6 (11731388_a_at) / Fold change /veh TMPRSS6 (11731388_a_at) / RFU KRTAP10-2 (11738614_at) / Fold change /veh KRTAP10-2 (11738614_at) / RFU ARHGAP8 /// PRR5-ARHGAP8 (11727945_x_at) / Fold change /veh ARHGAP8 /// PRR5-ARHGAP8 (11727945_x_at) / RFU KRTAP5-7 /// NADSYN1 (11734609_at) / Fold change /veh KRTAP5-7 /// NADSYN1 (11734609_at) / RFU RASL12 (11751679_a_at) / Fold change /veh RASL12 (11751679_a_at) / RFU CDKN2B (11736163_a_at) / Fold change /veh CDKN2B (11736163_a_at) / RFU PRF1 (11729649_at) / Fold change /veh PRF1 (11729649_at) / RFU, ZNF638 /// ZNF638-IT1 / Fold change vs veh, ZNF638 /// ZNF638-IT1 / RFU, PANK3 / Fold change vs veh, PANK3 / RFU, SH3YL1 / Fold change vs veh, SH3YL1 / RFU, ZEB2 / Fold change vs veh, ZEB2 / RFU, NRIP1 / Fold change vs veh, NRIP1 / RFU, PTTG1IP / Fold change vs veh, PTTG1IP / RFU, CAPN2 / Fold change vs veh, CAPN2 / RFU, MED14 / Fold change vs veh, MED14 / RFU, SNORA58 / Fold change vs veh, SNORA58 / RFU, C1orf63 / Fold change vs veh, C1orf63 / RFU, LRRFIP1 / Fold change vs veh, LRRFIP1 / RFU, NDUFAF7 / Fold change vs veh, NDUFAF7 / RFU, SLC12A2 / Fold change vs veh, SLC12A2 / RFU, IBTK / Fold change vs veh, IBTK / RFU, ESF1 / Fold change vs veh, ESF1 / Fold change vs veh, TMEM50B / RFU, TAOK1 / Fold change vs veh, TAOK1 / RFU, ACBD3 / Fold change vs veh, ACBD3 / RFU, TMA16 / Fold change vs veh, TMA16 / RFU, RWDD3 / Fold change vs veh, RWDD3 / RFU, BCAT1 / Fold change vs veh, BCAT1 / RFU, EDEM3 / Fold change vs veh, EDEM3 / RFU, TMEM33 / Fold change vs veh, TMEM33 / RFU, WDR75 / Fold change vs veh, WDR75 / RFU, AHCTF1 / Fold change vs veh, AHCTF1 / RFU, TFRC / Fold change vs veh, TFRC / RFU, ZDHHC17 / Fold change vs veh, ZDHHC17 / RFU, NOM1 / Fold change vs veh, NOM1 / RFU, ARL8B / Fold change vs veh, ARL8B / RFU, ZBTB11 / Fold change vs veh, ZBTB11 / RFU, TAMM41 / Fold change vs veh, TAMM41 / RFU, KIAA1704 /// LOC100996395 / Fold change vs veh, KIAA1704 /// LOC100996395 / RFU, ING1 / Fold change vs veh, ING1 / RFU, TRMT61B / Fold change vs veh, TRMT61B / RFU, FUBP3 / Fold change vs veh, FUBP3 / RFU, TP53 / Fold change vs veh, TP53 / RFU, TNKS2 / Fold change vs veh, TNKS2 / RFU, ZFP14 / Fold change vs veh, ZFP14 / RFU, ACTR2 / Fold change vs veh, ACTR2 / RFU, PPP3R1 / Fold change vs veh, PPP3R1 / RFU, PIK3R1 / Fold change vs veh, PIK3R1 / RFU, HNRNPA1 / Fold change vs veh, HNRNPA1 / RFU, RNF170 / Fold change vs veh, RNF170 / RFU, ZNF28 / Fold change vs veh, ZNF28 / RFU, RNGTT / Fold change vs veh, RNGTT / RFU, OGT / Fold change vs veh, OGT / RFU, BRD1 / Fold change vs veh, BRD1 / RFU, MARS / Fold change vs veh, MARS / RFU, ZNF655 / Fold change vs veh, ZNF655 / RFU, FAHD1 / Fold change vs veh, FAHD1 / RFU, BDP1 / Fold change vs veh, BDP1 / RFU, LRRCC1 / Fold change vs veh, LRRCC1 / RFU, ARID1A / Fold change vs veh, ARID1A / RFU, ZNF146 / Fold change vs veh, ZNF146 / RFU, ZNF330 / Fold change vs veh, ZNF330 / RFU, GPN3 / Fold change vs veh, GPN3 / RFU, C9orf123 / Fold change vs veh, C9orf123 / RFU, N4BP2L2 / Fold change vs veh, N4BP2L2 / RFU, ARFIP1 / Fold change vs veh, ARFIP1 / RFU, FAM179B / Fold change vs veh, FAM179B / RFU, BCL10 / Fold change vs veh, BCL10 / RFU, UHRF1BP1L / Fold change vs veh, UHRF1BP1L / RFU, BET1 / Fold change vs veh, BET1 / RFU, CNOT2 / Fold change vs veh, CNOT2 / RFU, ZNF268 / Fold change vs veh, ZNF268 / Fold change vs veh, ZNF507 / RFU, DGCR2 / Fold change vs veh, DGCR2 / RFU, WDSUB1 / Fold change vs veh, WDSUB1 / Fold change vs veh, HSP90B1 /// MIR3652 / RFU, ADSS / Fold change vs veh, ADSS / RFU, GK / Fold change vs veh, GK / RFU, ZNF148 / Fold change vs veh, ZNF148 / RFU, TAF9 / Fold change vs veh, TAF9 / RFU, SLC1A5 / Fold change vs veh, SLC1A5 / RFU, SLMO2 / Fold change vs veh, SLMO2 / RFU, ABCC4 / Fold change vs veh, ABCC4 / RFU, LOC101060439 /// RAP1B / Fold change vs veh, LOC101060439 /// RAP1B / RFU, RFX7 / Fold change vs veh, RFX7 / RFU, GTPBP10 / Fold change vs veh, GTPBP10 / RFU, CNEP1R1 / Fold change vs veh, CNEP1R1 / RFU, BIVM-ERCC5 /// ERCC5 / Fold change vs veh, BIVM-ERCC5 /// ERCC5 / RFU, ILF3 / Fold change vs veh, ILF3 / RFU 11762660_at / Fold change /veh 11762660_at / RFU VCAN (11757783_s_at) / Fold change /veh VCAN (11757783_s_at) / RFU DDX43 (11728927_at) / Fold change /veh DDX43 (11728927_at) / RFU KRT8 (11758188_x_at) / Fold change /veh KRT8 (11758188_x_at) / RFU NKD1 (11759106_at) / Fold change /veh NKD1 (11759106_at) / RFU SRD5A1 (11742802_a_at) / Fold change /veh SRD5A1 (11742802_a_at) / RFU TPSAB1 /// TPSB2 (11721975_s_at) / Fold change /veh TPSAB1 /// TPSB2 (11721975_s_at) / RFU GSTM3 (11746129_a_at) / Fold change /veh GSTM3 (11746129_a_at) / RFU IL23R (11737362_x_at) / Fold change /veh IL23R (11737362_x_at) / RFU TMEM51 (11727254_a_at) / Fold change /veh TMEM51 (11727254_a_at) / RFU PIWIL2 (11732686_x_at) / Fold change /veh PIWIL2 (11732686_x_at) / RFU ORM1 (11744905_x_at) / Fold change /veh ORM1 (11744905_x_at) / RFU CCDC152 (11743942_at) / Fold change /veh CCDC152 (11743942_at) / RFU ECM1 (11717891_a_at) / Fold change /veh ECM1 (11717891_a_at) / RFU IL23R (11748794_a_at) / Fold change /veh IL23R (11748794_a_at) / RFU TNFAIP8L3 (11732012_x_at) / Fold change /veh TNFAIP8L3 (11732012_x_at) / RFU MBOAT4 (11741988_at) / Fold change /veh MBOAT4 (11741988_at) / RFU 11764193_at / Fold change /veh 11764193_at / RFU TMEM53 (11763286_at) / Fold change /veh TMEM53 (11763286_at) / RFU MAGEB2 (11727129_at) / Fold change /veh MAGEB2 (11727129_at) / RFU TMEM200A (11744735_a_at) / Fold change /veh TMEM200A (11744735_a_at) / RFU CCDC152 (11751479_a_at) / Fold change /veh CCDC152 (11751479_a_at) / RFU FAM211A (11726209_a_at) / Fold change /veh FAM211A (11726209_a_at) / RFU RGS16 (11746705_a_at) / Fold change /veh RGS16 (11746705_a_at) / RFU VCAN (11755009_s_at) / Fold change /veh VCAN (11755009_s_at) / RFU RHOB (11743442_s_at) / Fold change /veh RHOB (11743442_s_at) / RFU RGS16 (11720943_a_at) / Fold change /veh RGS16 (11720943_a_at) / RFU RGS16 (11720944_at) / Fold change /veh RGS16 (11720944_at) / RFU, VPS4B / Fold change vs veh, VPS4B / RFU, CREB1 / Fold change vs veh, CREB1 / RFU, DNAJC13 / Fold change vs veh, DNAJC13 / RFU, GNAQ / Fold change vs veh, GNAQ / RFU, CDK5R1 / Fold change vs veh, CDK5R1 / RFU, ZRANB3 / Fold change vs veh, ZRANB3 / RFU, CUL4A / Fold change vs veh, CUL4A / RFU, CCNY / Fold change vs veh, CCNY / RFU, UFL1 / Fold change vs veh, UFL1 / RFU, COG3 / Fold change vs veh, COG3 / RFU, DIAPH2 / Fold change vs veh, DIAPH2 / RFU, SKA2 / Fold change vs veh, SKA2 / RFU, AFF3 / Fold change vs veh, AFF3 / RFU, LMF1 / Fold change vs veh, LMF1 / RFU, IPO11 / Fold change vs veh, IPO11 / RFU, DFFB / Fold change vs veh, DFFB / RFU, FOXP1 / Fold change vs veh, FOXP1 / RFU, CARD8 / Fold change vs veh, CARD8 / RFU, STRN3 / Fold change vs veh, STRN3 / RFU, ADK / Fold change vs veh, ADK / RFU, RASSF2 / Fold change vs veh, RASSF2 / RFU, WIPF1 / Fold change vs veh, WIPF1 / RFU, LARP1B / Fold change vs veh, LARP1B / RFU, RASA1 / Fold change vs veh, RASA1 / RFU, RB1 / Fold change vs veh, RB1 / RFU, PPFIA1 / Fold change vs veh, PPFIA1 / RFU, MAT2A / Fold change vs veh, MAT2A / RFU, CCT5 / Fold change vs veh, CCT5 / RFU, WDR92 / Fold change vs veh, WDR92 / RFU, CUX1 / Fold change vs veh, CUX1 / RFU, TTC7A / Fold change vs veh, TTC7A / RFU, TMEM135 / Fold change vs veh, TMEM135 / RFU, DEPTOR / Fold change vs veh, DEPTOR / RFU, CPM / Fold change vs veh, CPM / RFU, DNAJB6 / Fold change vs veh, DNAJB6 / RFU, CACNA2D3 / Fold change vs veh, CACNA2D3 / RFU, DTX4 / Fold change vs veh, DTX4 / RFU, TFCP2 / Fold change vs veh, TFCP2 / RFU, GMCL1 /// GMCL1P1 / Fold change vs veh, GMCL1 /// GMCL1P1 / RFU, AEBP2 / Fold change vs veh, AEBP2 / RFU, SNHG1 /// SNORD22 /// SNORD25 /// SNORD26 /// SNORD27 /// SNORD28 /// SNORD29 /// SNORD31 / Fold change vs veh, SNHG1 /// SNORD22 /// SNORD25 /// SNORD26 /// SNORD27 /// SNORD28 /// SNORD29 /// SNORD31 / Fold change (Aza/veh), C12orf56 (ProbeSet 11735607_a_at) / Fold change (ACY-1035/veh), C12orf56 (ProbeSet 11735607_a_at) / Fold change (Aza/veh), FGFR1OP (ProbeSet 11751329_s_at) / Fold change (ACY-1035/veh), FGFR1OP (ProbeSet 11751329_s_at) / Fold change (Aza/veh), VPS36 (ProbeSet 11739960_a_at) / Fold change (ACY-1035/veh), VPS36 (ProbeSet 11739960_a_at) / RFU SYPL1 (11715823_x_at) / Fold change /veh SYPL1 (11715823_x_at) / RFU IGFBP7 (11715501_s_at) / Fold change /veh IGFBP7 (11715501_s_at) / RFU REEP3 (11722064_at) / Fold change /veh REEP3 (11722064_at) / RFU IGLL1 (11728026_x_at) / Fold change /veh IGLL1 (11728026_x_at): dose or concentration left out as unconfirmed
Conditions: ProbeSet 11758397_s_at; LIST B

Nc1ncn([C@@H]2O[C@H](CO)[C@@H](O)[C@H]2O)c(=O)n1 [azacitidine]
Fold change vs veh, RNF170: 1.07
